A word on the Emax: it is the greatest response seen or fitted, relative to the assay's reference.

Here are results for 17 compounds from US20210115040A1, “OGA INHIBITOR COMPOUNDS” (Janssen Pharmaceutica NV, priority 2018, published 2021).

Assay [1] deals with T1, recombinant human Meningioma Expressed Antigen 5 (MGEA5), also referred to as O-GlcNAcase (OGA) (Homo sapiens, UniProt O60502).
T1 construct: Full length OGA enzyme was purchased at OriGene (cat #TP322411); purchased OriGene TP322411
T1 sequence (O60502 1-916): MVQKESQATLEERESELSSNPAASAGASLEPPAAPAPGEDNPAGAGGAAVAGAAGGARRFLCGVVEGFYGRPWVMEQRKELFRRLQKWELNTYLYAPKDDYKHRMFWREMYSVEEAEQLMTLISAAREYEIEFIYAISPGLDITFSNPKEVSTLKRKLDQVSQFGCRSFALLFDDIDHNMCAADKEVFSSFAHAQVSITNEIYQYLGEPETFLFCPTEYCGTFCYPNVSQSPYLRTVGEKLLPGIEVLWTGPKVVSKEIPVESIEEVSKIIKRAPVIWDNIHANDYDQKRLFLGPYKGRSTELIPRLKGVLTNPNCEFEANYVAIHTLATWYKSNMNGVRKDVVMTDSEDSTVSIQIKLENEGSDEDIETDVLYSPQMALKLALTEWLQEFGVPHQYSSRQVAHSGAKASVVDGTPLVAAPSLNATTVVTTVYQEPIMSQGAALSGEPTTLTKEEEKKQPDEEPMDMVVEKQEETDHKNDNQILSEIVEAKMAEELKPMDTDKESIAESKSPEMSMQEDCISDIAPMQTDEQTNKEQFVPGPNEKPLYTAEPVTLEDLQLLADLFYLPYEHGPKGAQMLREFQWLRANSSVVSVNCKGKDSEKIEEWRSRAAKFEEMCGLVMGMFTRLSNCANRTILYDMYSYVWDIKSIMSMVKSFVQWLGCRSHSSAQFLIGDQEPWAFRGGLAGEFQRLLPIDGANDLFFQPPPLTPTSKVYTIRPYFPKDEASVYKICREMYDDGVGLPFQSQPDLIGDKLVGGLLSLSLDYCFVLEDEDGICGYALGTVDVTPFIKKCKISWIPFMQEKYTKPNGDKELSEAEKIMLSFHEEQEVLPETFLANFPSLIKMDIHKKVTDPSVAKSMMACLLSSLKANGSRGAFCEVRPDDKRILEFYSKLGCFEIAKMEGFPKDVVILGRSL
Kind of assay: OGA biochemical assay (inhibition of FM-GlcNAc hydrolysis, fluorescence). As to conditions: FM-GlcNAc substrate; for IC50: read-out: Enzymatic hOGA, pIC50 (converted); for Emax: read-out: Enzymatic Emax (%). From the text:
The assay is based on the inhibition of the hydrolysis of fluorescein mono-β-D-N-Acetyl-Glucosamine (FM-GlcNAc) (Mariappa et al. 2015, Biochem J 470:255) by the recombinant human Meningioma Expressed Antigen 5 (MGEA5), also referred to as O-GlcNAcase (OGA). The hydrolysis FM-GlcNAc (Marker Gene technologies, cat #M1485) results in the formation of β-D-N-glucosamineacetate and fluorescein. The fluorescence of the latter can be measured at excitation wavelength 485 nm and emission wavelength 538 nm. An increase in enzyme activity results in an increase in fluorescence signal. Full length OGA enzyme was purchased at OriGene (cat #TP322411). The enzyme was stored in 25 mM Tris.HCl, pH 7.3, 100 mM glycine, 10% glycerol at −20° C. Thiamet G and GlcNAcStatin were tested as reference compounds (Yuzwa et al. 2008 Nature Chemical Biology 4:483; Yuzwa et al. 2012 Nature Chemical Biology 8:393). The assay was performed in 200 mM Citrate/phosphate buffer supplemented with 0.005% Tween-20. 35.6 g Na2HPO4 2H2O (Sigma, #C0759) were dissolved in 1 L water to obtain a 200 mM solution. 19.2 g citric acid (Merck, #1.06580) was dissolved in 1 L water to obtain a 100 mM solution. pH of the sodiumphosphate solution was adjusted with the citric acid solution to 7.2. The buffer to stop the reaction consists of a 500 mM Carbonate buffer, pH 11.0. 734 mg FM-GlcNAc were dissolved in 5.48 mL DMSO to obtain a 250 mM solution and was stored at −20° C. OGA was used at a 2 nM concentration and FM-GlcNAc at a 100 uM final concentration. Dilutions were prepared in assay buffer.
50 nl of a compound dissolved in DMSO was dispensed on Black Proxiplate™ 384 Plus Assay plates (Perkin Elmer, #6008269) and 3 μl fl-OGA enzyme mix added subsequently. Plates were pre-incubated for 60 min at room temperature and then 2 μl FM-GlcNAc substrate mix added. […] Plates were briefly centrifuged for 1 min at 1000 rpm and incubate at room temperature for 6 h. To stop the reaction 5 μl STOP buffer were added and plates centrifuge again 1 min at 1000 rpm. Fluorescence was quantified in the Thermo Scientific Fluoroskan Ascent or the PerkinElmer EnVision with excitation wavelength 485 nm and emission wavelength 538 nm.
For analysis a best-fit curve is fitted by a minimum sum of squares method. From this an IC50 value and Hill coefficient was obtained. High control (no inhibitor) and low control (saturating concentrations of standard inhibitor) were used to define the minimum and maximum values.

The next assay concerns the target T2, OGA (Homo sapiens, UniProt O60502).
T2 construct: HEK293 cells inducible for P301L mutant human Tau (isoform 2N4R) were established at Janssen; endogenous in cells; host or cells: HEK293 cells inducible for P301L mutant human Tau (2N4R)
T2 sequence (O60502 1-916): T1 sequence (O60502 1-916)
Kind of assay: OGA cellular assay (ICC detection of O-GlcNAcylated proteins in HEK293 cells inducible for P301L mutant human Tau). As to conditions: for Emax: HEK293, HEK293 cells inducible for P301L mutant human Tau; for Emax / Cellular Emax (%): maximum = Thiamet G 200 uM; for EC50 / Cellular Emax (%): HEK293 cells inducible for P301L mutant human Tau; for EC50: 6 hours incubation, read-out: Cellular hOGA, pEC50 (converted). The assay is classed as cell-based. How it is done: HEK293 cells inducible for P301L mutant human Tau (isoform 2N4R) were established at Janssen. Thiamet-G was used for both plate validation (high control) and as reference compound (reference EC50 assay validation). OGA inhibition is evaluated through the immunocytochemical (ICC) detection of O-GlcNAcylated proteins by the use of a monoclonal antibody (CTD110.6; Cell Signaling, #9875) detecting 0-GlcNAcylated residues as previously described (Dorfmueller et al. 2010 Chemistry & biology, 17:1250). Inhibition of OGA will result in an increase of O-GlcNAcylated protein levels resulting in an increased signal in the experiment. Cell nuclei are stained with Hoechst to give a cell culture quality control and a rough estimate of immediate compounds toxicity, if any. ICC pictures are imaged with a Perkin Elmer Opera Phenix plate microscope and quantified with the provided software Perkin Elmer Harmony 4.1.
Cells were propagated in DMEM high Glucose (Sigma, #D5796) following standard procedures. 2 days before the cell assay cells are split, counted and seeded in Poly-D-Lysine (PDL) coated 96-wells (Greiner, #655946) plate at a cell density of 12,000 cells per cm^2 (4,000 cells per well) in 100 μl of Assay Medium (Low Glucose medium is used to reduce basal levels of GlcNAcylation) (Park et al. 2014 The Journal of biological chemistry 289:13519). At the day of compound test medium from assay plates was removed and replenished with 90 μl of fresh Assay Medium. 10 μl of compounds at a 10fold final concentration were added to the wells. Plates were centrifuged shortly before incubation in the cell incubator for 6 hours. DMSO concentration was set to 0.2%. Medium is discarded by applying vacuum. For staining of cells medium was removed and cells washed once with 100 μl D-PBS (Sigma, #D8537). From next step onwards unless other stated assay volume was always 50 μl and incubation was performed without agitation and at room temperature. Cells were fixed in 50 μl of a 4% paraformaldehyde (PFA, Alpha aesar, #043368) PBS solution for 15 minutes at room temperature. […] Before analysis samples were washed 2 times manually for 5 minutes in ICC base buffer.
Imaging is performed using Perkin Elmer Phenix Opera using a water 20× objective and recording 9 fields per well. Intensity readout at 488 nm is used as a measure of O-GlcNAcylation level of total proteins in wells. To assess potential toxicity of compounds nuclei were counted using the Hoechst staining. IC50-values are calculated using parametric non-linear regression model fitting. As a maximum inhibition Thiamet G at a 200 uM concentration is present on each plate. In addition, a concentration response of Thiamet G is calculated on each plate.

`COc1cc(OC[C@H]2CCCN(C(C)c3ccc4sc(C)nc4n3)C2)cc(C)n1` (mixture of isomers) [Compound 54]: the IC50 in assay [1] (6 h at room temperature) is 10 nM. Besides, the Emax in assay [1] (maximal effect) was determined as 100%. In addition, on OGA, the Emax was determined as 67% and the EC50 was 158 nM.
As for `Cc1cc(C[C@H]2CCN(C(C)c3cnc4nc(C)oc4c3)C2)cc(C)n1` (stereo partly shown) [Compound 63], the IC50 in assay [1] (6 h at room temperature) was 100 nM. Moreover, the Emax in assay [1] (maximal effect) is 103%. On OGA, the Emax amounted to 77% and the EC50 is 158 nM.
Taken in the same sequence, the figures for `Cc1cc(CO[C@@H]2CCCN(C(C)c3ccc4sc(C)nc4n3)C2)cc(C)n1` (stereo partly shown) [Compound 68] were 126 nM, 98%, 27% and over 1000 nM.
Take `Cc1cc(C[C@@H]2CCN([C@@H](C)c3cc4nc(C)sc4cc3F)C2)cc(C)n1` [Compound 60]: in assay [1] (6 h at room temperature), the IC50 is 2 nM. Also, the Emax was found to be 99% in assay [1] (maximal effect) and 66% at OGA. Also, the EC50 on OGA is 63.1 nM.
For `Cc1cc([C@H]2CCCN([C@@H](C)c3ccc4sc(C)nc4n3)C2)nc(C)n1` (racemic) [Compound 71], in that order: 7940 nM, 51%, -5% and over 1000 nM.
With `Cc1cc(C2CCCN(C(C)c3cc4nc(C)sc4cc3F)C2)cc(C)n1` (stereo not shown) [Compound 89], the IC50 in assay [1] (6 h at room temperature) was 6.31 nM. In addition, in assay [1] (maximal effect), the Emax is 102%. Further, at OGA, the Emax came to 64% and the EC50 was 15.8 nM.
Taken in the same sequence, the figures for `Cc1cc(CO[C@H]2CCCN(C(C)c3cc4nc(C)sc4cc3F)C2)cc(C)n1` (mixture of isomers) [Compound 99] were 3.16 nM, 99%, 66% and 63.1 nM.
With `Cc1cc(C2CCCN(C(C)c3cc4nc(C)sc4cc3F)C2)cc(C)n1` (stereo not shown) [Compound 90], in assay [1] (6 h at room temperature), the “Enzymatic hOGA; pIC50” value was 8.2. Moreover, in assay [1] (maximal effect), the “Enzymatic Emax (%)” value is 101%. Moreover, at OGA, the EC50 was 31.6 nM and the “Cellular Emax (%)” value is on record as 84%.
`Cc1cc(OC[C@H]2CCCN(C(C)c3nc4nc(C)sc4cc3F)C2)cc(C)n1` (stereo partly shown) [Compound 91]: the IC50 in assay [1] (6 h at room temperature) is 3.98 nM. The Emax in assay [1] (maximal effect) came out at 101%. On OGA, the Emax is 66% and the EC50 is 7.94 nM.
Consider `Cc1cc(CO[C@H]2CCCN(C(C)c3ccc4sc(C)nc4n3)C2)cc(C)n1` (stereo partly shown) [Compound 66], for which the IC50 in assay [1] (6 h at room temperature) is 39.8 nM. Moreover, the Emax in assay [1] (maximal effect) was 100%. Also, at OGA, the Emax is 55% and the EC50 is 501 nM.
In the case of `Cc1cc([C@H]2CCCN([C@H](C)c3ccc4sc(C)nc4n3)C2)cc(C)n1` (racemic) [Compound 75], the IC50 in assay [1] (6 h at room temperature) is 2000 nM. Moreover, the results for the Emax (in assay [1] (maximal effect); at OGA) were 86% and -1%, respectively. Also, on OGA, the EC50 is over 1000 nM.
Take `Cc1cc(C[C@@H]2CCN(C(C)c3ccc4sc(C)nc4n3)C2)cc(C)n1` (mixture of isomers) [Compound 43]: the IC50 in assay [1] (6 h at room temperature) was 53.7 nM. Further, the Emax in assay [1] (maximal effect) was determined as 103%; on OGA it was 60%. Also, at OGA, the EC50 was 631 nM.
With `Cc1cc([C@H]2CCCN(C(C)c3nc4nc(C)[nH]c4cc3F)C2)cc(C)n1` (stereo partly shown) [Compound 82], the IC50 in assay [1] (6 h at room temperature) was 126 nM. Moreover, in assay [1] (maximal effect), the Emax was found to be 97%. Further, at OGA, the Emax turned out to be 39% and the EC50 was over 1000 nM.
Take `Cc1cc(NC[C@H]2CCCN(C(C)c3ccc4sc(C)nc4n3)C2)nc(C)n1` (stereo partly shown) [Compound 108]: in assay [1] (6 h at room temperature), the IC50 is 7.94 nM. Besides, in assay [1] (maximal effect), the Emax turned out to be 101%. In addition, at OGA, the Emax was determined as 84% and the EC50 is 12.6 nM.
On to `Cc1cc(C2CCCN(C(C)c3ccc4sc(C)nc4n3)C2)c(F)c(C)n1` (single isomer, unassigned) [Compound 77], for which the IC50 in assay [1] (6 h at room temperature) was 2510 nM. In addition, in assay [1] (maximal effect), the Emax is 75%. Also, at OGA, the EC50 was over 1000 nM and the “Cellular Emax (%)” value is reported as −10%.
For the compound `Cc1cc(OC[C@H]2CCN(C(C)c3ccc4sc(C)nc4n3)C2)cc(C)n1` (mixture of isomers) [Compound 48], the IC50 in assay [1] (6 h at room temperature) is 794 nM. In addition, the Emax in assay [1] (maximal effect) came to 93%. In addition, at OGA, the Emax worked out at 16% and the EC50 is over 1000 nM.
Take `Cc1cc(C[C@H]2CCCN(C(C)c3ccc4nc(C)sc4c3)C2)cc(C)n1` (mixture of isomers) [Compound 51]: in assay [1] (6 h at room temperature), the IC50 was 501 nM. The Emax in assay [1] (maximal effect) was 99%. Besides, on OGA, the EC50 is over 1000 nM.
